How the values were obtained:
L1210 [1] = test: Cytotoxicity against mouse L1210 cells assessed as inhibition of cell viability after 72 hrs by MTT assay; format: functional, cell-based; details: L1210, 72 h
L1210 [2] = test: Antitumor activity against mouse L1210 cells assessed as inhibition of [3H]thymidine incorporation at 0.25 mg/ml after 72 hrs relative to control; format: functional
L1210 [3] = test: Ratio of IC50 for mouse L1210 cells by MTT assay to EC50 for mouse L1210 cells by [3H]thymidine incorporation assay; format: functional
L1210 [4] = test: Cytotoxicity against mouse L1210 cells assessed as inhibition of cell viability after 72 hrs by MTT assay relative to control; format: functional; design: concentration or dose not given beside the values; details: values are per cent of control
PBMC = test: Cytotoxicity against human PBMC assessed as inhibition of cell viability after 72 hrs by MTT assay; format: cell-based
[5] = Cytotoxicity against human PBMC assessed as inhibition of cell viability at 0.25 mg/ml after 72 hrs by MTT assay; format: cell-based; details: PBMC (peripheral blood mononuclear cells), read-out: INH
L1210 [6] = test: Antitumor activity against mouse L1210 cells assessed as inhibition of [3H]thymidine incorporation after 72 hrs; format: functional, cell-based
L1210 [7] = test: Antitumor activity against mouse L1210 cells assessed as inhibition of [3H]thymidine incorporation at 0.5 mg/ml after 72 hrs relative to control; format: functional; details: values are per cent of control
[8] = Cytotoxicity against human PBMC assessed as inhibition of cell viability at 0.5 mg/ml after 72 hrs by MTT assay; format: cell-based; details: PBMC (peripheral blood mononuclear cells), read-out: INH
L1210 [9] = test: Antitumor activity against mouse L1210 cells assessed as inhibition of [3H]thymidine incorporation at 0.215 mg/ml after 72 hrs relative to control; format: functional
[10] = Cytotoxicity against human PBMC assessed as inhibition of cell viability at 0.21 mg/ml after 72 hrs by MTT assay; format: cell-based; details: PBMC (peripheral blood mononuclear cells), read-out: INH
L1210 [11] = test: Cytotoxicity against mouse L1210 cells assessed as inhibition of cell viability at 0.5 mg/ml after 72 hrs by MTT assay; format: functional; details: L1210, 72 h

Row | Compound | EC50 (L1210 [6]) | IC50 (L1210 [1]) | inhibition at 250 µg/mL (L1210 [2]) | Ratio IC50/EC50 (L1210 [3]) | viability, % of control (L1210 [4]) | IC50 (PBMC) | cytotoxicity at 72 h, 0.25 mg/ml [5] | growth, % of control at 500 µg/mL (L1210 [7]) | cytotoxicity at 72 h, 0.5 mg/ml [8] | inhibition at 215 µg/mL (L1210 [9]) | cytotoxicity at 72 h, 0.21 mg/ml [10] | inhibition at 500 µg/mL (L1210 [11])
1 | CC(=O)N[C@H]1[C@@H](OCc2ccccc2)O[C@H](CO)[C@@H](O)[C@@H]1O[C@H](C)C(=O)N[C@@H](C(=O)N[C@H](CCC(=O)O)C(N)=O)C(C)C | 228 µM | 266 µM | 0.83% | 47.9 | 39.72% | 244 µM | < 50% |  |  |  |  | 
2 | CC(=O)N[C@H]1[C@@H](OCc2ccccc2)O[C@H](CO)[C@@H](O)[C@@H]1OCC(=O)N[C@H](C)C(=O)N[C@H](CCC(=O)O)C(N)=O | 363 µM | 287 µM |  | 36.6 | 19.97% | 335 µM |  | 0.55% |  |  |  | 
3 | CC(=O)N[C@H]1[C@@H](OCc2ccccc2)O[C@H](CO)[C@@H](O)[C@@H]1OCC(=O)N[C@H](CO)C(=O)N[C@H](CCC(=O)O)C(N)=O | 290 µM | 314 µM |  | 19.3 | 14.68% | 858 µM |  | 0.76% | < 50% |  |  | 
4 | CC(=O)N[C@H]1[C@@H](OCc2ccccc2)O[C@H](CO)[C@@H](O)[C@@H]1OCC(=O)N[C@@H](C(=O)N[C@H](CCC(=O)O)C(N)=O)C(C)C | 193 µM | 170 µM |  | 23.7 | 26.6% | 361 µM |  |  | < 50% | 1.12% | < 50% | 
5 | CC(=O)N[C@H]1[C@@H](OCc2ccccc2)O[C@H](CO)[C@@H](O)[C@@H]1O[C@H](C)C(=O)N[C@H](C)C(=O)N[C@H](CCC(=O)NCCNc1ncnc2c1ncn2[C@@H]1O[C@H](CO)[C@@H](O)[C@H]1O)C(N)=O | 517 µM | 287 µM |  | 3.7 | 35.91% | 389 µM |  | 9.75% |  |  |  | 
6 | CC[C@@H](NC(=O)[C@@H](C)O[C@H]1[C@H](O)[C@@H](CO)O[C@H](OCc2ccccc2)[C@@H]1NC(C)=O)C(=O)N[C@H](CCC(=O)NCCNc1ncnc2c1ncn2[C@@H]1O[C@H](CO)[C@@H](O)[C@H]1O)C(N)=O | 446 µM | 220 µM |  | 33.8 | 29.01% | 439 µM |  | 0.86% |  |  |  | 
7 | CC(=O)N[C@H]1[C@@H](OCc2ccccc2)O[C@H](CO)[C@@H](O)[C@@H]1O[C@H](C)C(=O)N1CCC[C@@H]1C(=O)N[C@H](CCC(=O)NCCNc1ncnc2c1ncn2[C@@H]1O[C@H](CO)[C@@H](O)[C@H]1O)C(N)=O | 507 µM | 311 µM |  | 9.3 | 43.1% | 271 µM |  | 4.65% |  |  |  | 
8 | CC(=O)N[C@H]1[C@@H](OCc2ccccc2)O[C@H](CO)[C@@H](O)[C@@H]1O[C@H](C)C(=O)N[C@H](CO)C(=O)N[C@H](CCC(=O)NCCNc1ncnc2c1ncn2[C@@H]1O[C@H](CO)[C@@H](O)[C@H]1O)C(N)=O | 497 µM | 218 µM |  | 5.5 | 28.09% | 324 µM |  | 5.14% |  |  |  | 
9 | CC(=O)N[C@H]1[C@@H](OCc2ccccc2)O[C@H](CO)[C@@H](O)[C@@H]1OCC(=O)N1CCC[C@@H]1C(=O)N[C@H](CCC(=O)NCCNc1ncnc2c1ncn2[C@@H]1O[C@H](CO)[C@@H](O)[C@H]1O)C(N)=O | 511 µM | 562 µM |  | 8.7 | 52.99% | 280 µM |  | 6.1% |  |  |  | < 50%
10 | CC(=O)N[C@H]1[C@@H](OCc2ccccc2)O[C@H](CO)[C@@H](O)[C@@H]1OCC(=O)N[C@@H](C)C(=O)N[C@H](CCC(=O)NCCCCCC(=O)Nc1ncnc2c1ncn2[C@@H]1O[C@H](CO)[C@@H](O)[C@H]1O)C(N)=O | 537 µM | 537 µM |  | 0.4 | 70.64% | 537 µM |  | 178% | < 50% |  |  | 
11 | CC(=O)N[C@H]1[C@@H](OCc2ccccc2)O[C@H](CO)[C@@H](O)[C@@H]1O[C@H](C)C(=O)N[C@@H](C)C(=O)N[C@H](CCC(=O)NCCCCCC(=O)Nc1ncnc2c1ncn2[C@@H]1O[C@H](CO)[C@@H](O)[C@H]1O)C(N)=O | 529 µM | 529 µM |  | 0.3 | 65.58% | 529 µM |  | 192% | < 50% |  |  | 
12 | CC(=O)N[C@@H]1[C@@H](O[C@H](C)C(=O)N[C@H](C)C(=O)N[C@H](CCC(=O)O)C(N)=O)[C@H](O)[C@@H](CO)O[C@@H]1O | 1010 µM | 1010 µM |  | 0.4 | 64.93% | 1010 µM |  | 146% | < 50% |  |  | 
13 | Nc1ncnc2c1ncn2[C@@H]1O[C@H](CO)[C@@H](O)[C@H]1O [ADENOSINE] | 1870 µM | 991 µM |  | 0.2 | 32.79% | 1870 µM |  | 132% | < 50% |  |  | 

More lines, main results first:

Row | EC50 (L1210 [6]) | Compound | IC50 (L1210 [1]) | inhibition at 250 µg/mL (L1210 [2]) | Ratio IC50/EC50 (L1210 [3]) | viability, % of control (L1210 [4]) | IC50 (PBMC) | cytotoxicity at 72 h, 0.25 mg/ml [5] | growth, % of control at 500 µg/mL (L1210 [7]) | cytotoxicity at 72 h, 0.5 mg/ml [8] | inhibition at 215 µg/mL (L1210 [9]) | cytotoxicity at 72 h, 0.21 mg/ml [10] | inhibition at 500 µg/mL (L1210 [11])
14 | 458 µM | CC(=O)N[C@H]1[C@@H](OCc2ccccc2)O[C@H](CO)[C@@H](O)[C@@H]1O[C@H](C)C(=O)N[C@@H](C(=O)N[C@H](CCC(=O)NCCNc1ncnc2c1ncn2[C@@H]1O[C@H](CO)[C@@H](O)[C@H]1O)C(N)=O)C(C)C | 161 µM |  | -0.3 | -0.87% | 234 µM |  | 2.9% |  |  |  | 
15 | 500 µM | CC(=O)N[C@H]1[C@@H](OCc2ccccc2)O[C@H](CO)[C@@H](O)[C@@H]1OCC(=O)N[C@H](C)C(=O)N[C@H](CCC(=O)NCCNc1ncnc2c1ncn2[C@@H]1O[C@H](CO)[C@@H](O)[C@H]1O)C(N)=O | 270 µM |  | 44.7 | 29.84% | 298 µM |  | 0.67% |  |  |  | 
16 | 506 µM | CC[C@@H](NC(=O)CO[C@H]1[C@H](O)[C@@H](CO)O[C@H](OCc2ccccc2)[C@@H]1NC(C)=O)C(=O)N[C@H](CCC(=O)NCCNc1ncnc2c1ncn2[C@@H]1O[C@H](CO)[C@@H](O)[C@H]1O)C(N)=O | 571 µM |  | 19.6 | 53.6% | 466 µM |  | 2.73% |  |  |  | < 50%
17 | 541 µM | CC(=O)N[C@H]1[C@@H](OCc2ccccc2)O[C@H](CO)[C@@H](O)[C@@H]1OCC(=O)N[C@H](CO)C(=O)N[C@H](CCC(=O)NCCNc1ncnc2c1ncn2[C@@H]1O[C@H](CO)[C@@H](O)[C@H]1O)C(N)=O | 570 µM |  | 2.1 | 64.95% | 479 µM |  | 31.6% |  |  |  | 
18 | 512 µM | CC(=O)N[C@H]1[C@@H](OCc2ccccc2)O[C@H](CO)[C@@H](O)[C@@H]1OCC(=O)N[C@@H](C(=O)N[C@H](CCC(=O)NCCNc1ncnc2c1ncn2[C@@H]1O[C@H](CO)[C@@H](O)[C@H]1O)C(N)=O)C(C)C | 285 µM |  | 2.6 | 31.65% | 561 µM |  | 12.3% | < 50% |  |  | 
19 | 292 µM | CC(=O)N[C@H]1[C@@H](OCc2ccccc2)O[C@H](CO)[C@@H](O)[C@@H]1O[C@H](C)C(=O)N[C@H](C(=O)N[C@H](CCC(=O)NCCNc1ncnc2c1ncn2[C@@H]1O[C@H](CO)[C@@H](O)[C@H]1O)C(N)=O)C(C)C | 555 µM |  | 1.9 | 59.37% | 555 µM |  | 31.1% | < 50% |  |  | < 50%
